According to US12410171B2, “Tropomyosin receptor kinase (TRK) degradation compounds and methods of use” (Cullgen (Shanghai), Inc., priority 2020, dated 2025):

What follows are compounds tested on KM12 cells (assay: KM12 cell viability (CellTiter-Glo)). Settings: Homo sapiens, 72 h; KM12 cell viability, 11-point 3-fold serial dilution, 3 days, CellTiter-Glo; read-out: IC50.
Type: cell-based
Procedure: KM12 or H358 cells were treated with 1000 nM CPD-053 following an 8-point 3-fold serial dilution for 3 days.
KM12 cells seeded in 96-well plates were treated with heterobifunctional compounds following a 11-point 3-fold serial dilution for 3 days.
KM12, H358, HEL, SU-DHL-1 and other cells were cultured at 37° C. with 5% CO2 in RPMI 1640 Medium supplemented with 10% fetal bovine serum. Cells were authenticated using the short tandem repeat (STR) assays. Mycoplasma test results were negative. Stable cell lines were established by lentivirus transduction, selected and maintained in medium containing 1 μg/mL puromycin (Beyotime Biotechnology).
Cells were seeded at a density of 5000 cells per well in 96-well assay plates and treated with test compounds following a 12-point 2-fold serial dilution or a 8-point 3-fold dilution, or 11-point 3-fold serial dilution. Three days later, cell viability was determined using the CellTiter-Glo assay kit (Promega) according to the manufacturer's instructions. The dose-response curves were determined and IC50 values were calculated using the GraphPad Prism software following a nonlinear regression (least squares fit) method.

| SMILES | IC50 [nM] |
| --- | --- |
| Cc1ncsc1-c1ccc(CNC(=O)[C@@H]2C[C@@H](O)CN2C(=O)[C@@H](NC(=O)CCC(=O)N2CCC(Nc3cccc(C(=O)Nc4cnn5ccc(N6CCC[C@@H]6c6cc(F)ccc6F)nc45)n3)CC2)C(C)(C)C)cc1 [CPD-461, N-(5-((R)-2-(2,5-difluorophenyl)pyrrolidin-1-yl)pyrazolo[1,2-a]pyrimidin-3-yl)-6-((1-(4-(((S)-1-((2S,4R)-4-hydroxy-2-((4-(4-methylthiazol-5-yl)benzyl)carbamoyl)pyrrolidin-1-yl)-3,3-dimethyl-1-oxobutan-2-yl)amino)-4-oxobutanoyl)piperidin-4-yl)amino)picolinamide] | > 1000 |
| Cc1ncsc1-c1ccc(CNC(=O)[C@@H]2C[C@@H](O)CN2C(=O)[C@@H](NC(=O)CCOCCOCCC(=O)N2CCN(Cc3ccc(NC(=O)c4coc(N5CCOCC5)n4)c(N4CCC(C(N)=O)CC4)c3)CC2)C(C)(C)C)cc1 [CPD-495] | > 10000 |
| Cc1ncsc1-c1ccc(CNC(=O)[C@@H]2C[C@@H](O)CN2C(=O)[C@@H](NC(=O)CCCCCCC(=O)N2CCN(Cc3ccc(NC(=O)c4coc(N5CCOCC5)n4)c(N4CCC(C(N)=O)CC4)c3)CC2)C(C)(C)C)cc1 [CPD-492, N-(2-(4-carbamoylpiperidin-1-yl)-4-((4-(8-(((S)-1-((2S,4R)-4-hydroxy-2-((4-(4-methylthiazol-5-yl)benzyl)carbamoyl)pyrrolidin-1-yl)-3,3-dimethyl-1-oxobutan-2-yl)amino)-8-oxooctanoyl)piperazin-1-yl)methyl)phenyl)-2-morpholinooxazole-4-carboxamide] | 178 |
| O=C1CCC(N2C(=O)c3ccc(NCC(=O)N4CCC(Nc5cccc(C(=O)Nc6cnn7ccc(N8CCC[C@@H]8c8cc(F)ccc8F)nc67)n5)CC4)cc3C2=O)C(=O)N1 (stereo partly drawn) [CPD-460, N-(5-((R)-2-(2,5-difluorophenyl)pyrrolidin-1-yl)pyrazolo[1,5-a]pyrimidin-3-yl)-6-((1-((2-(2,6-dioxopiperidin-3-yl)-1,3-dioxoisoindolin-5-yl)glycyl)piperidin-4-yl)amino)picolinamide] | 32 |
| Cc1ncsc1-c1ccc(CNC(=O)[C@@H]2C[C@@H](O)CN2C(=O)[C@@H](NC(=O)CCOCCOCCOCCOCCOCCC(=O)N2CCC(Nc3cccc(C(=O)Nc4cnn5ccc(N6CCC[C@@H]6c6cc(F)ccc6F)nc45)n3)CC2)C(C)(C)C)cc1 [CPD-469, N-(5-((R)-2-(2,5-difluorophenyl)pyrrolidin-1-yl)pyrazolo[1,5-a]pyrimidin-3-yl)-6-((1-((S)-21-((2S,4R)-4-hydroxy-2-((4-(4-methylthiazol-5-yl)benzyl)carbamoyl)pyrrolidine-1-carbonyl)-22,22-dimethyl-19-oxo-4,7,10,13,16-pentaoxa-20-azatricosanoyl)piperidin-4-yl)amino)picolinamide] | > 1000 |
| COc1ccc(COc2ccc(Cn3c(N)nc4cc(-c5cnn(CC(=O)NCCOCCC(=O)N[C@H](C(=O)N6C[C@H](O)C[C@H]6C(=O)NCc6ccc(-c7scnc7C)cc6)C(C)(C)C)c5)cnc43)cc2OC)cc1 [CPD-512, (2S,4R)-1-((S)-2-(3-(2-(2-(4-(2-amino-3-(3-methoxy-4-((4-methoxybenzyl)oxy)benzyl)-3H-imidazo[4,5-b]pyridin-6-yl)-1H-pyrazol-1-yl)acetamido)ethoxy)propanamido)-3,3-dimethylbutanoyl)-4-hydroxy-N-(4-(4-methylthiazol-5-yl)benzyl)pyrrolidine-2-carboxamide] | 307 |
| Cc1ncsc1-c1ccc(CNC(=O)[C@@H]2C[C@@H](O)CN2C(=O)[C@@H](NC(=O)CCOCCC(=O)N2CCN(Cc3ccc(NC(=O)c4coc(N5CCOCC5)n4)c(N4CCC(C(N)=O)CC4)c3)CC2)C(C)(C)C)cc1 [CPD-494] | > 10000 |
| Cc1ncsc1-c1ccc(CNC(=O)[C@@H]2C[C@@H](O)CN2C(=O)[C@@H](NC(=O)CCOCCOCCOCCC(=O)N2CCN(Cc3ccc(NC(=O)c4coc(N5CCOCC5)n4)c(N4CCC(C(N)=O)CC4)c3)CC2)C(C)(C)C)cc1 [CPD-496, N-(2-(4-carbamoylpiperidin-1-yl)-4-((4-((S)-15-((2S,4R)-4-hydroxy-2-((4-(4-methylthiazol-5-yl)benzyl)carbamoyl)pyrrolidine-1-carbonyl)-16,16-dimethyl-13-oxo-4,7,10-trioxa-14-azaheptadecanoyl)piperazin-1-yl)methyl)phenyl)-2-morpholinooxazole-4-carboxamide] | 8760 |
| Cc1ncsc1-c1ccc(CNC(=O)[C@@H]2C[C@@H](O)CN2C(=O)[C@@H](NC(=O)CCOCCOCCC(=O)N2CCC(Nc3cccc(C(=O)Nc4cnn5ccc(N6CCC[C@@H]6c6cc(F)ccc6F)nc45)n3)CC2)C(C)(C)C)cc1 [CPD-466] | 253 |
| COc1ccc(COc2ccc(Cn3c(N)nc4cc(-c5cnn(CC(=O)NCCOCCNc6cccc7c6C(=O)N(C6CCC(=O)NC6=O)C7=O)c5)cnc43)cc2OC)cc1 (centres unmarked) [CPD-502, 2-(4-(2-amino-3-(3-methoxy-4-((4-methoxybenzyl)oxy)benzyl)-3H-imidazo[4,5-b]pyridin-6-yl)-1H-pyrazol-1-yl)-N-(2-(2-((2-(2,6-dioxopiperidin-3-yl)-1,3-dioxoisoindolin-4-yl)amino)ethoxy)ethyl)acetamide] | 682 |
| COc1ccc(COc2ccc(Cn3c(N)nc4cc(-c5cnn(CC(=O)NCCOCCOCCOCCOCCC(=O)N[C@H](C(=O)N6C[C@H](O)C[C@H]6C(=O)NCc6ccc(-c7scnc7C)cc6)C(C)(C)C)c5)cnc43)cc2OC)cc1 [CPD-515, (2S,4R)-1-((S)-1-(4-(2-amino-3-(3-methoxy-4-((4-methoxybenzyl)oxy)benzyl)-3H-imidazo[4,5-b]pyridin-6-yl)-1H-pyrazol-1-yl)-20-(tert-butyl)-2,18-dioxo-6,9,12,15-tetraoxa-3,19-diazahenicosan-21-oyl)-4-hydroxy-N-(4-(4-methylthiazol-5-yl)benzyl)pyrrolidine-2-carboxamide] | 343 |

Same assay, conditions: Homo sapiens, 72 h; KM12 cell viability, CellTiter-Glo, three days treatment; read-out: IC50

| SMILES | IC50 [nM] |
| --- | --- |
| O=C1CCC(n2c(=O)n(CCCN3CCN(c4ccc(C(=O)Nc5n[nH]c6ccc(Cc7cc(F)cc(F)c7)cc56)c(NC5CCOCC5)c4)CC3)c3ccccc32)C(=O)N1 (stereo not drawn) [TR-311, N—(S-(3,5-Difluorobenzyl)-1H-indazol-3-yl)-4-(4-(3-(3-(2,6-dioxopiperidin-3-yl)-2-oxo-2,3-dihydro-1H-benzo[d]imidazol-1-yl)propyl)piperazin-1-yl)-2˜ ((tetrahydro-2H-pyran-4-yl)amino)benzamide] | 14.8 |
| O=C1CCC(n2c(=O)n(CCN3CCN(c4ccc(C(=O)Nc5n[nH]c6ccc(Cc7cc(F)cc(F)c7)cc56)c(NC5CCOCC5)c4)CC3)c3ccccc32)C(=O)N1 (stereo not drawn) [TR-310, N—(S-(3,5-Difluorobenzyl)-1H-indazol-3-yl)-4-(4-(2-(3-(2,6-dioxopiperidin-3-yl)-2-oxo-2,3-dihydro-1H-benzo[d]imidazol-1-yl)ethyl)piperazin-1-yl)-2-((tetrahydro-2H-pyran-4-yl)amino)benzamide] | 12.5 |
| O=C1CCC(N2C(=O)c3ccc(N4CC(CN5CCC(n6ccc(-c7cnc8ccc(N9CCC[C@@H]9c9cccc(F)c9)nn78)c6)CC5)C4)cc3C2=O)C(=O)N1 (stereo partly drawn) [TR-222, 2-(2,6-Dioxopiperidin-3-yl)-5-(3-((4-(3-(6-((R)-2-(3-fluorophenyl)pyrrolidin-1-yl)imidazo[1,2-b]pyridazin-3-yl)-1H-pyrrol-1-yl)piperidin-1-yl)methyl)azetidin-1-yl)isoindoline-1,3-dione] | > 500 |
| O=C1CCC(N2C(=O)c3ccc(CCN4CCN(c5ccc(C(=O)Nc6n[nH]c7ccc(Cc8cc(F)cc(F)c8)cc67)c(NC6CCOCC6)c5)CC4)cc3C2=O)C(=O)N1 (centres unmarked) [TR-277, N-(5-(3,5-Difluorobenzyl)-1H-indazol-3-yl)-4-(4-(2-(2-(2,6-dioxopiperidin-3-yl)-1,3-dioxoisoindolin-S-yl)ethyl)piperazin-1-yl)-2-((tetrahydro-2H-pyran-4-yl)amino)benzamide] | > 500 |
| O=C1CCC(N2C(=O)c3ccc(N4CC(CN5CCN(c6cccc(-c7cnc8ccc(N9CCC[C@@H]9c9cccc(F)c9)cn78)n6)CC5)C4)cc3C2=O)C(=O)N1 (stereo partly drawn) [TR-234, 2-(2,6-dioxopiperidin-3-yl)-5-(3-((4-(6-(6-((R)-2-(3-fluorophenyl)pyrrolidin-1-yl)imidazo[1,2-a]pyridin-3-yl)pyridin-2-yl)piperazin-1-yl)methyl)azetidin-1-yl)isoindoline-1,3-dione] | 284 |

What follows are compounds tested against T1, TPM3-TRKA fusion protein (Homo sapiens, UniProt P04629) (assay: TPM3-TRKA fusion protein levels in KM12 cells (Western blot)). Settings: 16 h; TPM3-TRKA degradation in KM12 cells at 10 nM compound, category of percentage degradation; read-out: Degradation (at 10 nM).
T1 construct: The resulted chimeric proteins always retain the kinase domain of TRK proteins; TPM3 (fusion partner, N-terminal part of tropomyosin alpha-3, P06753); endogenous in cells; host or cells: KM12 colon cancer cells; the other entry of the earlier key: TPM3 (P06753, Tropomyosin alpha-3 chain)
T1 sequence (P04629 with tags, fused parts or gaps): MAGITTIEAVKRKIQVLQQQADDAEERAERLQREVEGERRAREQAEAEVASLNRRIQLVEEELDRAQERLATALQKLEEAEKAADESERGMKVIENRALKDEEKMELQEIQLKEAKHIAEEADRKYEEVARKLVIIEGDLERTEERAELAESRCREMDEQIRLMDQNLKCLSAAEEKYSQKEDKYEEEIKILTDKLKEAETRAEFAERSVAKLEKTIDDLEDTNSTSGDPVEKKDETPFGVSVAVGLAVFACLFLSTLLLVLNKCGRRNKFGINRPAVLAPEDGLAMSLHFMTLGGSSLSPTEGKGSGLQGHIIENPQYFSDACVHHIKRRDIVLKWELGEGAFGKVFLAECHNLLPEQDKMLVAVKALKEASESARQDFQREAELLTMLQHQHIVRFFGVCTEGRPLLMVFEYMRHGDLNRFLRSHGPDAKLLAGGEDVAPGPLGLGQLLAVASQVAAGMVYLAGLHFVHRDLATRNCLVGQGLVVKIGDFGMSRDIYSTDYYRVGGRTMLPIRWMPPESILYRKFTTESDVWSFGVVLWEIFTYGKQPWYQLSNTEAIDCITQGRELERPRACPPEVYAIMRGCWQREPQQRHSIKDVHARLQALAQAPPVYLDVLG
Type: cell-based
Procedure, shortened: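 TPM3-TRKA levels were assessed by Western blot with chemiluminescent detection and band densitometry, after SDS-PAGE of BCA-normalized RIPA lysates. Before lysis, KM12 cells received DMSO, compounds or matched control compounds at concentrations including 0.1, 1, 10 and 100 nM and 0.4–30 nM. Exposures lasted 4 h, 8–16 h or 16 h.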

| SMILES | percent degradation of TPM3-TRKA protein at 0.01 µM [%] |
| --- | --- |
| Cc1ncsc1-c1ccc(CNC(=O)[C@@H]2C[C@@H](O)CN2C(=O)[C@@H](NC(=O)CCCCCCCNC(=O)CN2CCN(c3ccc(C(=O)Nc4n[nH]c5ccc(Cc6cc(F)cc(F)c6)cc45)c(NC4CCOCC4)c3)CC2)C(C)(C)C)cc1 [CPD-061, (2S,4R)-1-((S)-2-(8-(2-(4-(4-((5-(3,5-Difluorobenzyl)-1H-indazol-3-yl)carbamoyl)-3-((tetrahydro-2H-pyran-4-yl)amino)phenyl)piperazin-1-yl)acetamido)octanamido)-3,3-dimethylbutanoyl)-4-hydroxy-N-(4-(4-methylthiazol-5-yl)benzyl)pyrrolidine-2-carboxamide] | < 50 |
